Experiment [1] deals with human platelets in platelet-rich-plasma. Nature of the experiment: ADP-induced aggregation of human platelets in platelet-rich plasma (Born aggregometer method as modified by Mustard et al.). Format: cell-based.
Method: Platelet-rich plasma was prepared from human blood drain into syringes containing 1/10 volume of 3.8% sodium citrate. The blood was then subjected to centrifugation for about 10 minutes at 140 g and then the platelet-rich plasma decanted. The test compound was dissolved in DMSO (5 μL) and added to PRP (0.9 mL) 3 minutes prior to the addition of ADP (5.86 μM). The aggregometer method of Born, as modified by Mustard et al., was employed to measure platelet aggregation. Vehicle control trials were performed and compared with the extent of aggregation induced in PRP containing various concentrations of the test compounds. Dose-response curves were thus obtained and IC50 values determined.
Experiment [2] deals with platelet aggregation. The conditions noted are these: prior art description; cited from earlier work.
In experiment [3] the test system is human PRP. The conditions noted are these: cited from earlier work.

Converted amounts (≈) assume the structure as drawn.

With `CCOC(=O)N(Cc1nc(-c2ccccc2)c(-c2ccccc2)o1)c1cccc(OCC(=O)O)c1` [Compound 13d, [3-[[(4,5-diphenyl-2-oxazolyl)methyl](ethoxycarbonyl)amino]phenoxy]acetic acid], in experiment [1], the “potency relative to the compound of Formula (ii) (inhibition of ADP-induced platelet aggregation)” value was “four times as potent”.

For `O=C(O)CCCCCCCOc1nc(-c2ccccc2)c(-c2ccccc2)n1-c1ccccc1` [Octimibate], the “inhibition of platelet aggregation (in words)” value in experiment [2] was “broad spectrum inhibitor of platelet aggregation”. In experiment [3], the “IC50 (human PRP vs ADP)” value is 1 µg/mL (≈ 2.2 µM).

For the compound `O=C(O)CCCCCCCOc1nc(-c2ccccc2)c(-c2ccccc2)n1-c1ccccc1` [octimibate sodium], the “inhibition of platelet aggregation (in words)” value in experiment [2] is “possessing anti-aggregatory activity”.

The values are drawn from patent US5362879A, “4-5-diphenyloxazole derivatives as inhibitors of blood platelet aggregation” (Bristol-Myers Squibb Company, priority 1993, dated 1994).
